We go through one compound from patent US20070142638A1, “Ornithine derivatives as prostaglandin e2 agonists or antagonists” (Astellas Pharma Inc., priority 2003, published 2007).

What is called inhibition is the drop in the measured response relative to a control, in per cent.

This assay addresses T1, prostanoid receptor subtype (human EP4) (Homo sapiens, UniProt P35408).
T1 construct: expressed in transfected cells; host or cells: COS-7 cells (membrane fraction)
The assay can be described thus: Binding assay using membrane preparation with the expression of prostanoid receptor subtype. The note with it: test compound at 1.0×10^−8 M (10 nM); competition with [^3H]-PGE2 10 nM; membrane fraction of COS-7 cells transfected with human EP4. The procedure: The radioactivity associated with the filter was measured by liquid scintillation counting.
The following buffer was used in all reactions.

Bounds are passed on as bounds.

T1 sequence (P35408 whole entry): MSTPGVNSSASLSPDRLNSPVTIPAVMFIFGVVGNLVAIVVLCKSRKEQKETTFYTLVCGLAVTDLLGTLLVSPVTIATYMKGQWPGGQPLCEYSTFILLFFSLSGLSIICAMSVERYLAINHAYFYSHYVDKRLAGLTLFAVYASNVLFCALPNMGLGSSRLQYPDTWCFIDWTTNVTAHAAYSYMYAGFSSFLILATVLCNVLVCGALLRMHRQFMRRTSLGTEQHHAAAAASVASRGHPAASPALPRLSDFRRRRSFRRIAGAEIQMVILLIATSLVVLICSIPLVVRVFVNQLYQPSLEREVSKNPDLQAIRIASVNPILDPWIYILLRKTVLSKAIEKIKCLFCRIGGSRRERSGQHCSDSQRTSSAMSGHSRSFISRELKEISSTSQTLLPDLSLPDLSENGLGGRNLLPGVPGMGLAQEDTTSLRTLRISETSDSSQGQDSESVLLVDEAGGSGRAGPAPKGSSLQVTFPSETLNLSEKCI

Regarding `O=C(O)CCCCCNC(=O)[C@H](CCCNC(=O)OCc1ccccc1)NC(=O)c1cc2ccccc2o1` [Example 23, Sodium 6-{(2S)-2-[(1-benzofuran-2-yl-carbonyl)-amino]-5-[benzyloxycarbonylamino]pentanoylamino}-hexanoate], the inhibition at 0.01 µM was no less than 80%.
